Experimental data taken from patent US20240181121A1, “A WOUND CARE PRODUCT COMPRISING AN ANTIMICROBIAL COATING” (Mölnlycke Health Care AB, priority 2021, published 2024).

Tests used:
[1] = Rate of dissolution of antimicrobial coating in water, LC-MS; type: physicochemical; conditions: 2 ml water; sterilized coated wound contact layer
Experimental: The comparison was made between prototypes spray coated with an antimicrobial solution of chlorhexidine phosphate (0.56% by weight) and prototypes spray coated with an antimicrobial solution of chlorhexidine acetate (0.68% by weight). The spray coating was performed with the same parameters and on the same equipment, as described with respect to Example 1 and 2 hereinbefore. After spraying, the samples were sent to sterilization on production site to undergo typical sterilization cycle required for antimicrobial products. […] Triplicates of silicone coated films (wound contact layers) and release liners were separated and placed in wells in contact with 2 ml solution of water during 3 hours, then removed and placed in a new well for 24 hours in order to evaluate instant (>3 h) and short (>24 h) term dissolution. After calibration of the equipment against the solutions of interest, the concentration of CHP and CHAc in the different wells was evaluated by Liquid chromatography-mass spectrometry in order to quantify the amount of antimicrobial coating that was able to dissolve instantly or shortly.

[2] = system: P. aeruginosa (ATCC 9027); assay: Minimum bactericidal concentration (MBC) in solution, simulated wound fluid; type: cell-based
Experimental: (§1) Test organisms: P. aeruginosa ATCC 9027 (bacteria), S. aureus ATCC 6538 (bacteria), C. albicans ATCC 10231 (fungi), P. aeruginosa ATCC PAO1 (bacteria, example 1b).
(§2) Test time: 24 h for bacteria and 48 h for fungi
(§3) Start inoculum: 1×10^6 CFU/ml for bacteria, 4×10^6 CFU/ml for fungi.
(§4) Tests were performed in solution to compare the potency of silver sulfate, chlorhexidine phosphate and chlorhexidine gluconate, using simulated wound fluid, SWF (fetal bovine serum (FBS) and Peptone Water (PW) mixed in equal proportions, which correspond to the protein and electrolyte concentration of wound exudates (Emiko Aiba-Kojima, M D et. al Wound Rep Reg (2007) 15 511-520; Trengove, N et al Wound Rep Reg (1996) 4 1067-1927)) as test medium. The aim was to define the lowest concentration of an antimicrobial agent required to kill the specific microorganism. The test microorganisms were suspended in SWF, in which antimicrobial substances were added at different concentration before subculture in well microtiter plates.

[3] = system: Candida albicans ATCC 10231; assay: as above; type: cell-based; conditions: for MBC: Candida albicans, simulated wound fluid, 48 h
Experimental: as §1, §2, §3, §4

[4] = system: S. aureus ATCC 6538; assay: as above; type: cell-based
Experimental: as §1, §2, §3, §4

[5] = system: Staphylococcus aureus; conditions: prototype coated with 75 μg/cm^2; sterilized; 2 ml SWF
Experimental: as §1, §2, §3

[6] = system: Pseudomonas aeruginosa PAO1 biofilms; assay: Reduction of biofilm counts in contact with CHP solution (collagen matrix, SWF); type: cell-based; conditions: for Log count / Log reduction: biofilm, 24 h
Experimental: Tests were performed in solution to evaluate the potency of chlorhexidine phosphate (CHP) against biofilms cultured on a collagen matrix, using SWF as test medium. The aim was to define if concentrations of CHP that can be spray coated on the surface of the silicone contact layer would have an impact on the biofilms. The test microorganism was Pseudomonas aeruginosa PAO1, suspended in a SWF solution, and placed on a collagen matrix in wells of 24-well plates. The well plates were incubated at 37° C., 95% relative humidity for 24 h to induce formation of biofilms. After incubation and formation of biofilms, the antimicrobial substance CHP was added on top of biofilms at different concentrations in triplicates and were incubated for another 24 h at 37° C., 95% relative humidity. […] The number of viable counts were determined by plating on PetriFilms.

[7] = system: all microorganism (same microorganisms as used in Example 1a); assay: Antimicrobial effect of coating sprayed on silicone wound contact layer; type: cell-based, S. aureus, P. aeruginosa, C. albicans; conditions: sterilized, 2 ml SWF
Experimental: The prototypes were punched into disks of 7 cm^2 and placed in a well in contact with 2 ml SWF containing a solution of microorganism in suspension (same microorganisms as used in Example 1a). The wound contact layer used in the tests comprised a polyurethane film coated with 200 gsm of a silicone adhesive.
Microorganism growth was evaluated on the silicone layer; i.e. the skin facing surface, and in suspension in the liquid.

In the case of `CC(=O)O.CC(=O)O.NC(=N\CCCCCC/N=C(N)/N=C(\N)Nc1ccc(Cl)cc1)/N=C(\N)Nc1ccc(Cl)cc1` [CHAc, chlorhexidine acetate, reference compound], the “Instant dissolution % Released from silicone after 3 h” value [1] is reported as 28% and the “Short time dissolution Additional % released from silicone after additional 21 h” value [1] is reported as 11%.

Work on `O=S(=O)([O-])[O-].[Ag+].[Ag+]` [Silver sulfate, silver sulfate] yielded an MBC ([2]; 24 h) of 160 µM, an MBC [3] of 5000 µM and an MBC ([4]; 24 h) of 310 µM. For the same molecule, the “log reduction from inoculum size” value [5] was < 4 log.

In the case of `N=C(NCCCCCCNC(=N)NC(=N)Nc1ccc(Cl)cc1)NC(=N)Nc1ccc(Cl)cc1` [CHP, chlorhexidine phosphate], the MBC ([2]; Pseudomonas aeruginosa, ATCC9027, 24 h) is reported as 26 µM, the MBC ([3]; ATCC10231) is reported as 26 µM and the “times more silver than chlorhexidine phosphate required to kill Candida albicans” value ([3]; ratio silver vs chlorhexidine phosphate) is reported as “up to 190 times”. For the same molecule, the MBC ([4]; Staphylococcus aureus, ATCC6538, 24 h) was 7 µM, the Log count ([6]; CHP 37 uM (sample 1)) was 4.4 and the Log reduction ([6]; CHP 37 uM (sample 1)) was 5.5. The Log count ([6]; CHP 75 uM (sample 2)) was 3.9, the Log reduction ([6]; CHP 75 uM (sample 2)) was 6.1 and the Log count ([6]; CHP 150 uM (sample 3)) was 4.1. The Log reduction ([6]; CHP 150 uM (sample 3)) was 5.9, the “log reduction of biofilms vs FDA requirement” value ([6]; CHP solutions of 37 μM, 75 μM, 150 μM) was > 4 and the “Instant dissolution % Released from silicone after 3 h” value [1] was 100%. For the same molecule, the “Total released in 24 h” value [1] was 100%, the “elimination of microorganism on the silicone surface and in the solution” value ([7]; prototype sprayed at 45 μg/cm^2) was “full elimination” and the “elimination of microorganism on the silicone surface and in the solution” value ([7]; prototype sprayed at 75 μg/cm^2) was “full elimination”.

Molecule `N=C(NCCCCCCNC(=N)NC(=N)Nc1ccc(Cl)cc1)NC(=N)Nc1ccc(Cl)cc1.O=C(O)[C@H](O)[C@@H](O)[C@H](O)[C@H](O)CO.O=C(O)[C@H](O)[C@@H](O)[C@H](O)[C@H](O)CO` [CHG, chlorhexidine gluconate] has an MBC ([2]; 24 h) of 520 µM, an MBC [3] of 60 µM and an MBC ([4]; 24 h) of 30 µM.
